Test results: the SangsterLogP compilation

logP | Compound
8.92 | CCCCCCCCCCCCCCCCC
5.2 | CCCCC(CC)CCl (centres undefined)
5.44 | C=C(C)CC(C)(C)C
3.1 | CCCCCCC(=O)OC
4.15 | Brc1ccc(Br)s1
5.7 | C=CCCCCCCC=C
3.22 | BrCC(Br)C(Br)CBr (centres undefined)
8.7 | CCCCCCCCCCCCCCCCCCCl
4.22 | c1ccc(Cc2ccccc2)cc1
5.83 | CC(C)CC(C)(C)C
6.69 | CCCCCCCCCC
5.54 | c1ccc(C2CCCCC2)cc1
6.88 | c1ccc2c(c1)ccc1cc3c(ccc4ccccc43)cc12

Compound | logP
Clc1cc(Cl)c(-c2c(Cl)cc(Cl)cc2Cl)c(Cl)c1 | 6.39
